{"source": "patent US20240361338A1", "about": "“DIAGNOSIS AND TREATMENT OF ECTOPIC ENDOMETRIOSIS” (FERRING B.V., priority 2021, published 2024)", "key": {"ectopic E-MSCs [1]": {"tested_on": "ectopic E-MSCs", "assay": "Endothelial differentiation (CD31) of ectopic E-MSCs in co-culture with HUVECs", "type": "cell-based, human", "settings": "for endothelial differentiation (CD31 expression) of E-MSCs: 1 μM, 24 h treatment, 48 h co-culture with HUVECs", "procedure": "FIG. 5: Quinagolide effect on EMSCs endothelial differentiation. A. FACS gating-strategy for the analysis of CD31^+ EMSCs after direct 48 h co-culture with HUVECs. EMSCs are gated as GFP negative population, and CD31 expression is evaluated on the described gated EMSCs after 48 h co-culture with HUVECs as percentage of CD31 APC positive events. B, C and D: Representative flow cytometry micrographs and quantification, expressed as percentage of variation respect to control co-culture, of the effect of 24 h treatment of EMSCs with 25 μM cabergoline, 1 μM sorafenib, 1 μM cabozantinib (B), 100 nM quinagolide (C) and the combination of 5 μM spiperone and 100 nM quinagolide (D) on EMSCs CD31 expression after 48 h of co-culture with HUVECs. Data are represented as mean±SD of at least three independent experiments, performed on different ectopic EMSC lines, and normalized to untreated co-culture. One-way ANova was performed: *=p<0.05 and ***=p<0.001 vs control.\n(BSA)-Phosphate Buffered Saline (PBS) (Sigma). For each staining, 100,000 cells were incubated for 20 minutes at 4° C. with FITC, APC or PE-conjugated antibodies against: CD29, CD44, CD73, CD90 (BD Bioscences, Franklin Lakes, NJ, USA); CD31, CD34, CD105, CD140b, CD146, TEK receptor tyrosine kinase (Tie2), Sushi domain-containing protein 2 (SUSD2) (Miltenyi Biotech, Bergisch Gladbach, Germany); CD45 (AbD Serotec, Raleigh, NC, USA), or epithelial cell adhesion molecule (EPCAM) (BioLegend, San Diego, CA, USA). Labelled cells were washed by centrifugation and final pellet was resuspended in 200 μl of 0.1% BSA-PBS before cytofluorimetric analysis. Isotype (Miltenyi Biotec) was used as negative control.\nQuinagolide powder (provided by Ferring Pharmaceuticals) was stored at 4° C. and resuspended in dimethylsulphoxide (DMSO) to a stock solution of 1 mM immediately before use. Spiperone powder (Sigma-Aldrich) was resuspended in water to a stock concentration of 1 mM and stored at −20° C. Cabergoline powder (Sigma-Aldrich) was dissolved in DMSO to a stock concentration of 25 mM and stored at −20° C. Sorafenib and cabozantinib (Sigma-Aldrich) were resuspended in DMSO to a final concentration of 10 mM and according to the manufacturer's instructions, and stored at −20° C. and −80° C., respectively. Quinagolide, spiperone and cabergoline were diluted 1:100 (final concentration 100 nM), 1:1000 (final concentration 5 μM) and 1:1000 (final concentration 25 μM) respectively. Quinagolide, cabergoline, sorafenib and cabozantinib and were administered for 24 hours during co-culture experiments, while spiperone was added to culture medium 1 h before quinagolide treatment. For invasion assays, E-MSCs were treated with spiperone 1 h before the cell detachment and quinagolide was added only when cells were plated on Matrigel. […]"}, "ectopic E-MSCs [2]": {"tested_on": "ectopic E-MSCs", "settings": "25 μM, previously described (Canosa et al., 2017), positive control; cited from earlier work"}, "ectopic E-MSCs [3]": {"tested_on": "ectopic E-MSCs", "assay": "Matrigel transwell invasion assay, ectopic E-MSCs", "type": "cell-based, human", "settings": "5 μM spiperone pre-treatment 1 h, then 100 nM quinagolide, ectopic EMSCs", "procedure": "FIG. 4: Quinagolide effect on EMSCs invasion. A and B: Representative micrographs (A) and quantification (B) of quinagolide effect (100 nM) on eutopic and ectopic (both ovarian and peritoneal) EMSCs invasion (original magnification: ×100). C: Concentration response effect of quinagolide treated ectopic EMSCs invasion. D and E: Quantification (D) and representative micrographs (E) (original magnification: ×100) of invasion assays performed on ectopic EMSCs (both ovarian and peritoneal), treated with 100 nM quinagolide (Q100 nM), 5 μM spiperone(S) or a combination of quinagolide and spiperone (S+Q100 nM). All invasion data are represented as mean±SD of at least three independent experiments, performed on different EMSC lines, and normalized to untreated cells (CTL). One-way ANova was performed: *=p<0.05 and **=p<0.001 vs CTL. Quinagolide powder (provided by Ferring Pharmaceuticals) was stored at 4° C. and resuspended in dimethylsulphoxide (DMSO) to a stock solution of 1 mM immediately before use. Spiperone powder (Sigma-Aldrich) was resuspended in water to a stock concentration of 1 mM and stored at −20° C. Cabergoline powder (Sigma-Aldrich) was dissolved in DMSO to a stock concentration of 25 mM and stored at −20° C. […] Quinagolide, cabergoline, sorafenib and cabozantinib and were administered for 24 hours during co-culture experiments, while spiperone was added to culture medium 1 h before quinagolide treatment. […] E-MSCs were seeded in triplicate in Matrigel-precoated (100 μg Matrigel/transwell) 8-um pore transwells at a concentration of 50,000 cells per well in 200 μl of RPMI 2% FCS with/without quinagolide at the indicated concentration. To test the D2 antagonist effect, E-MSCs were pre-treated with spiperone (5 μM) for 1 h at 37° C. before cell detachment. After 48 hours, invaded E-MSCs on the bottom side of the transwell were fixed with methanol and stained with crystal violet. At least five pictures per transwell were acquired (original magnification: 100×), and the percentage of transwell area covered by invaded EMSCs was quantitatively measured by ImageJ software."}}, "data": [{"smiles": "CNC(=O)c1cc(Oc2ccc(NC(=O)Nc3ccc(Cl)c(C(F)(F)F)c3)cc2)ccn1", "note": "[Sorafenib]", "values": [{"measurement": "endothelial differentiation (CD31 expression) of E-MSCs", "setting": "ectopic E-MSCs [1]", "result": "no effect"}]}, {"smiles": "C=CCN1C[C@H](C(=O)N(CCCN(C)C)C(=O)NCC)C[C@@H]2c3cccc4[nH]cc(c34)C[C@H]21", "note": "[cabergoline]", "values": [{"measurement": "E-MSC's angiogenic potential", "setting": "ectopic E-MSCs [2]", "result": "decrease"}]}, {"smiles": "COc1cc2nccc(Oc3ccc(NC(=O)C4(C(=O)Nc5ccc(F)cc5)CC4)cc3)c2cc1OC", "note": "[cabozantinib]", "values": [{"measurement": "endothelial differentiation (CD31 expression) of E-MSCs", "setting": "ectopic E-MSCs [1]", "result": "no effect"}]}, {"smiles": "O=C(CCCN1CCC2(CC1)C(=O)NCN2c1ccccc1)c1ccc(F)cc1", "note": "[spiperone]", "values": [{"measurement": "reversal of quinagolide anti-invasive effect", "setting": "ectopic E-MSCs [3]", "result": "completely reverted"}, {"measurement": "block of quinagolide effect on CD31 expressing E-MSCs", "setting": "ectopic E-MSCs [1]; 5 μM spiperone one hour before 100 nM quinagolide, co-culture", "result": "blocked"}]}]}
